Measured values: patent publication US20230391776A1, “AMIDE OXAZOLE COMPOUND” (MEDSHINE DISCOVERY INC., priority 2020, published 2023)

Assays:
human IRAK4 = target: T1, human IRAK4 (Homo sapiens, UniProt Q9NWZ3); assay: In vitro IRAK4 kinase activity, 33P isotope-labeled kinase assay; assay type: biochemical
T1 construct: purchased Reaction Biology Corp
T1 sequence (Q9NWZ3 1-460): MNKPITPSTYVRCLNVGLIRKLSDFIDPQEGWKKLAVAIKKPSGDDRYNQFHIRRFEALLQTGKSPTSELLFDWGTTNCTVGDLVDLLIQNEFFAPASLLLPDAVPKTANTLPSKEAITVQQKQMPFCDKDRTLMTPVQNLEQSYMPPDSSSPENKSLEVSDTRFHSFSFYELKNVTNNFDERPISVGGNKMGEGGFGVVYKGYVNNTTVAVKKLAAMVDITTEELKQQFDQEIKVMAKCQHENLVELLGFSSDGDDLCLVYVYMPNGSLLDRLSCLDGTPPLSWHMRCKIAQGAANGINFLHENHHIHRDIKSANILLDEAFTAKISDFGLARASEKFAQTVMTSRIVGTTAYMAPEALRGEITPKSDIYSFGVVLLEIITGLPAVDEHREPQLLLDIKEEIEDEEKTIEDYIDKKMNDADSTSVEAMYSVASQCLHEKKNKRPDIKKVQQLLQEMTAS
Experimental: The IC50 values were determined using ^33P isotope-labeled kinase activity assay (Reaction Biology Corp) to evaluate the inhibitory ability of the tested compounds on human IRAK4.
(§1) Buffer conditions: 20 mM Hepes (pH 7.5), 10 mM MgCl2, 1 mM EGTA, 0.02% Brij35, 0.02 mg/mL BSA, 0.1 mM Na3VO4, 2 mM DTT, 1% DMSO.
Test procedure: At room temperature, the tested compound was dissolved in DMSO and a 10 mM solution was prepared for use. The substrate was dissolved in a newly prepared buffer solution, and the tested IRAK4 kinase was added thereto and mixed evenly. The DMSO solution dissolved with the tested compound was added to the above mixed evenly reaction solution using acoustic technique (Echo 550). After incubation for 15 minutes, ^33P-ATP was added to initiate the reaction. The reaction was carried out at room temperature for 120 minutes, and the reaction mixture was dropped on P81 ion exchange filter paper (Whatman #3698-915). The filter paper was washed repeatedly with 0.75% phosphoric acid solution, and the radioactivity of phosphorylated substrate residues on the filter paper was determined. The kinase activity data were expressed by comparing the kinase activity of the group containing the tested compound with the kinase activity of the blank group (only containing DMSO), and the IC50 value was obtained by curve fitting by Prism4 software (GraphPad), the experimental results were shown in Table 2.

human BTK = target: T2, human BTK (Homo sapiens, UniProt Q06187); assay: In vitro BTK kinase activity, 33P isotope-labeled kinase assay; assay type: biochemical
T2 construct: purchased Reaction Biology Corp
Experimental: The IC50 values were determined using ^33P isotope-labeled kinase activity assay (Reaction Biology Corp) to evaluate the inhibitory ability of the tested compounds on human BTK.
as §1
Test procedure: At room temperature, the tested compound was dissolved in DMSO and a 10 mM solution was prepared for use. The substrate was dissolved in a newly prepared buffer solution, and the BTK kinase was added thereto and mixed evenly. The compound dissolved in DMSO was added to the kinase reaction mixture through Echo 550 (Acoustic technology; Nanoliter range). After incubation for 20 minutes at room temperature, ^33P-ATP was added to initiate the reaction. The reaction was carried out at room temperature for 2 hours, and the radioactivity of the reaction solution drop was detected by filtration-binding method with P81 ion exchange filter paper. The kinase activity data were expressed by comparing the kinase activity of the group containing the tested compound with the kinase activity of the blank group (only containing DMSO), and the IC50 value was obtained by curve fitting by Prism4 software (GraphPad), the experimental results were shown in Table 3.

[1] = system: TNF-α production in THP-1 cells; assay: TNF-α ELISA in LPS-stimulated THP-1 cells; assay type: cell-based; details: Homo sapiens, TNF-α in supernatant, 150 ng/mL LPS, 18 hours
Experimental: THP-1 human acute single cell leukemia cells were purchased from ATCC (Cat #TIB-202) and cultured at 37° C. in 5% CO2 incubator. The composition of medium was RPMI1640 (Gibco, Cat #22400-105), and the supplementary compositions were 10% FBS (Gibco, Cat #10091148); 1% PenStrep (Gibco, Cat #15140); 0.05 mM β-mercaptoethanol (Sigma, Cat #M6250).
TNF-α Elisa kit was used to detect the content of TNF-α in cell culture supernatant samples. TNF-α was produced by stimulating THP-1 cells with 150 ng/mL LPS (Sigma, Cat #L6529).
THP-1 cells cultured normally at logarithmic growth period were seeded in a 96-well plate (Corning #3599) at a certain concentration (1*10^5/100 μL) and then put into a cell incubator for incubation. After two hours, 16.7 μL of different concentrations of the compound to be tested (8*final concentration) were added and incubated in an incubator. After one hour, 16.7 μL of 1200 ng/mL LPS was added and incubated in an incubator. After 18 hours, the culture supernatant samples were collected by centrifugation, and the content of TNF-α could be detected by TNF-α Elisa kit. Finally, OD signals (OD450-OD570) were read on envision board reader.
The OD450-OD570 signal value was converted into a percentage inhibition rate.
Inhibition rate %=(ZPE−sample)/(ZPE−HPE)*100.
“HPE” referred to the OD450-OD570 signal value of the control well without LPS stimulated cells, and “ZPE” referred to the OD450-OD570 signal value of the control well with LPS stimulated cells. The IC50 value of the compound was calculated by XLFit in the excel add-in.
Y=Bottom+(Top−Bottom)/(1+(IC50/X)^HillSlope). Equation: […]

[2] = system: OCI-LY10 human diffuse large B lymphoma cells; assay: OCI-LY10 cell proliferation (Cell Titer Glo); assay type: cell-based; details: 72 hours
Experimental: (§2) The tumor cell lines OCI-LY10 and TMD-8 were used to detect the effect of the compound of the disclosure on inhibiting tumor cell proliferation in vitro.
OCI-LY10 human diffuse large B lymphoma cells, from Nanjing Cobioer Biotechnology Co., Ltd
(§3) The compound was diluted with DMSO to a final concentration of 10 mM. The compound was freshly prepared and ready for use.
(§4) a) Logarithmic growth period cells were collected, counted, resuspended with complete culture medium, the cell concentration was adjusted to an appropriate concentration (determined according to the results of cell density optimization test), inoculated on 96-well plates, and 100 μL of cell suspension was added to each well. Cells were incubated in an incubator with 37° C., 100% relative humidity and 5% CO2 for 24 hours.
(§5) b) The compound to be tested was diluted to 50 μM with culture medium and then gradient diluted for 8 times. Cells were added with 25 μL/well. The final concentrations of the compound were from […], 3-fold gradient dilution, with a total of 9 concentration points.
(§6) c) Cells were incubated in an incubator with 37° C., 100% relative humidity and 5% CO2 for 72 hours;
(§7) d) 60 μL of CTG test reagent was added to the culture medium.
(§8) e) Shaked fully and reacted in the dark for 10 min. Luminescence was measured on ENVISION and the inhibition rate was calculated.
(§9) Cell growth inhibition rate %=[(RLUv−RLUs)/(RLUv−RLUb)]×100%

[3] = system: TMD-8 human diffuse large B lymphoma cells; assay: TMD-8 cell proliferation (Cell Titer Glo); assay type: cell-based; details: TMD8, 72 hours
Experimental: as §2
TMD-8 human diffuse large B lymphoma cells, from Nanjing Cobioer Biotechnology Co., Ltd
as §3, §4, §5, §6, §7, §8, §9

OCI-LY3 cell line = assay: OCI-LY3 cell proliferation (CTG); assay type: cell-based; details: Homo sapiens, 72 hours
Experimental: The tumor cell line OCI-LY3 was used to detect the effect of the compound of the disclosure on inhibiting tumor cell proliferation in vitro.
The tumor cell line used in this experiment was provided by Nanjing Cobioer Biotechnology Co., Ltd. See Table 6 below for specific information.
The OCI-LY3 cell line was cultured in the corresponding medium at 37° C. and 5% CO2, and the logarithmic growth period cells were used for experimental planking. The cells were collected and centrifuged at 800 rpm for 5 minutes, and the culture medium was re-suspended and spread in a 96-well plate. After being cultured overnight in 37° C., 5% CO2 incubator, drugs with different concentration gradients (10 μL of prepared diluent of test compound was added) were added, and incubated in 37° C., 5% CO2 incubator for 72 hours. The cell culture plate was incubated with CTG reagent at room temperature in the dark for 30 minutes and return to room temperature. CTG solution was added into the biosafety cabinet in the dark 100 μL/well, and was shaken and mixed evenly on plate shaker in the dark for 2 minutes, and incubated at room temperature in the dark for 10 minutes. The luminous value was read and recorded with Perkin Elmer Envision instrument.
The luminous value of the blank control group was subtracted from the luminous value measured at each drug concentration, the ratio of this value to DMSO group was taken as the cell inhibition rate (%). GraphPad software was used, the logarithm of drug concentration (log drug concentration) versus inhibition rate was plotted, and the IC50 value and 95% confidence value were automatically fitted and calculated by log (inhibitor) vs. response-variable slop (four parameters) algorithm of nonlinear regression by software.

[4] = system: human diffuse large B lymphoma TMD8 cell subcutaneous xenograft; assay: TMD8 subcutaneous xenograft tumor model (WX009 study); assay type: in vivo, SCID mouse; details: 20 mg/kg QD PO, 18th day after administration
From the text: The formula for calculating the tumor inhibition rate TGI (%)=[1−(average tumor volume at the end of administration in a treatment group-average tumor volume at the beginning of administration in the treatment group))/(average tumor volume at the end of treatment in solvent control group-average tumor volume at the beginning of treatment in solvent control group)]×100%.

[5] = system: human diffuse large B lymphoma TMD8 cell subcutaneous xenograft; assay: TMD8 subcutaneous xenograft tumor model (WX017 and WX027 study); details: 20 mg/kg QD PO, 11th day after administration
Experimental: a) TMD8 cells were cultured in RPMI-1640 medium containing 10% FBS and maintained in a 37° C. saturated humidity incubator with 5% CO2. TMD8 cells in logarithmic period were collected, resuspended in RPMI-1640 basal medium, and Matrigel was added at 1:1, and the cell concentration was adjusted to 4×10^7/mL. Under aseptic conditions, 0.1 mL of cell suspension was inoculated under the skin of the right back of SCID mice, and the inoculation concentration was 4×10^6/0.1 mL/mouse.
When the tumor grew to a certain size, the animals with too large, too small or irregular tumor shape were excluded, and the animals with tumor volume of 108.76-188.11 mm^3 were selected. According to the tumor volume, the animals were divided into 10 groups by random block method, with 6 mice in each group, and the average tumor volume was about 152.11 mm^3. The health status and death of animals were monitored every day, and routine examinations included observing the effects of tumor growth and drug treatment on daily behaviors of animals, such as behavioral activities, food intake and water intake, weight change (weight was measured twice a week), tumor size (tumor volume was measured twice a week), appearance signs or other abnormal conditions.
The formula for calculating tumor volume (TV) was: 1/2×a×b^2, where a and b were the measured length and width of the tumor respectively. The formula for calculating the tumor inhibition rate TGI (%)=[1−(average tumor volume at the end of administration in a treatment group-average tumor volume at the beginning of administration in the treatment group))/(average tumor volume at the end of treatment in solvent control group-average tumor volume at the beginning of treatment in solvent control group)]×100%.
In this study, the experimental data were all expressed by Mean±SEM. Statistical analysis was based on the data of RTV at the end of the experiment and analyzed by IBM SPSS Statistics software. T test was used to analyze the comparison between two groups, and one-way ANOVA was used to analyze the comparison between three or more groups. If the variance was even (there was no significant difference in F value), Tukey's method was used to analyze it, and if the variance was uneven (there was significant difference in F value), Games-Howell method was used to test it. p<0.05 was deemed to a significant difference.

T2 sequence (Q06187 whole entry): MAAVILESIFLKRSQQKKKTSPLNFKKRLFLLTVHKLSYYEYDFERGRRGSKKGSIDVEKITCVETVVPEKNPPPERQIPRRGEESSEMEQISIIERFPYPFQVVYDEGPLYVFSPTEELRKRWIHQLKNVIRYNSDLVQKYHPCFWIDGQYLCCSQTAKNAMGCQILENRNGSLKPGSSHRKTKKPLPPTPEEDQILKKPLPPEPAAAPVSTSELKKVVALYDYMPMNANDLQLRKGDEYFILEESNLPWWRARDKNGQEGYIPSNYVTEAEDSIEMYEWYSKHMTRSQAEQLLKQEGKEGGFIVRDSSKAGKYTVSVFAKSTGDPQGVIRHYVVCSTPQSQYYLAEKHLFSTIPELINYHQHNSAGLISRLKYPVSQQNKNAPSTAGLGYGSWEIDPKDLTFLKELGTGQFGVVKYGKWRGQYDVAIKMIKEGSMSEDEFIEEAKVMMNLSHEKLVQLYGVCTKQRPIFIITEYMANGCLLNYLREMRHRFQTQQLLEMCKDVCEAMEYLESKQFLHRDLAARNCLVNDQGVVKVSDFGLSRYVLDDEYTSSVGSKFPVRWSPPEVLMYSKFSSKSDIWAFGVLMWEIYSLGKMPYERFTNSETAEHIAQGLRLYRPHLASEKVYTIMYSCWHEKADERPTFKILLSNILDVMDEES

Row | Structure (SMILES) | IC50 (human IRAK4) [nM] | IC50 (human BTK) [nM] | IC50 [1] [nM] | IC50 [2] [nM] | IC50 [3] [nM] | IC50 (OCI-LY3 cell line) [nM] | TGI [4] [%] | TGI ([4]; listed as Ibrahim) [%] | TGI [5] [%]
1 | CS(=O)(=O)CCc1cn2cc(NC(=O)c3coc(-c4ccnc(N)c4)n3)c(-c3ccccc3)cc2n1 [WX013] | 1.8 | 2.9 | 6 | 8 | 20 | 34 | – | – | –
2 | C=CC(=O)N1CCC[C@@H](n2nc(-c3ccc(Oc4ccccc4)cc3)c3c(N)ncnc32)C1 [ibrutinib, reference compound] | – | – | – | – | – | – | 12.95 | 13 | 39
